This is an account of results in patent US20240383898A1, “PYRIDO RING COMPOUND, PREPARATION METHOD THEREFOR, INTERMEDIATE, COMPOSITION, AND APPLICATION” (YIYOU BIOTECH (SHANGHAI) CO., LTD, priority 2021, published 2024).

One assay deals with T1, JAK1 (Homo sapiens, UniProt P23458).
T1 construct: purchased Carna 08-114
The assay is described as follows: In vitro activity test of JAK1 kinase (Caliper EZ Reader conversion assay). The conditions noted are these: enzyme activity, 10 concentrations from 1000 nM, 3-fold dilution. The assay is classed as biochemical. As to the method:
(§1) In Vitro Activity Test of JAK1 and JAK2 Kinases
(§2) • Centrifuge (manufacturer: Eppendorf, model: 5430) • ELISA Instrument (Manufacturer: Perkin Elmer, Model: Caliper EZ Reader 1I) • Echo 550 (Manufacturer: Labcyte, Model: Echo 550)
(§3) (1) Prepare 1 Kinase buffer.
(§4) (2) Compound concentration gradient preparation: The test compound was tested at 1000 nM, 3-fold dilution, 10 concentrations, two-well assay, and configured to a 100-fold final concentration in a 384-well plate. 250 nl of the test compound was then transferred to the 384 reaction plate using Echo550. 250 nl of 100% DMSO was added to each of the negative and positive control wells.
(§5) (3) Prepare 2.5 times the final concentration of kinase solution with 1×Kinase buffer.
(§6) (4) Add 10 μL of 2.5 times the final concentration of kinase solution to the compound wells and 10 μL of 1×Kinase buffer to the negative control wells.
(§7) (5) Centrifuge at 1000 rpm for 30 seconds, mix well with shaking, and incubate at room temperature for 10 minutes.
(§8) (6) Prepare a 25/15-fold final concentration of mixture of ATP and Kinase substrate with 1×Kinase buffer.
(§9) (7) Add 15 μL of a mixture of 25/15 times the final concentration of ATP and substrate to start the reaction.
(§10) (8) Centrifuge the 384-well plate at 1000 rpm for 30 seconds, mix well with shaking, and incubate at room temperature for an appropriate amount of time.
(§11) (9) Stop the kinase reaction by adding 30 μL of termination solution, centrifuge at 1000 rpm for 30 seconds, and mix well with shaking.
(§12) (10) Read the conversion rate with Caliper EZ Reader.
(§13) where: Conversion %_sample is the conversion rate reading of the sample-, Conversion %_min: the average value of the negative control wells, representing the conversion reading of the wells without enzyme activity: Conversion %-max: the average value of the positive control wells, representing the conversion reading of the wells without compound inhibition.
(§14) The log value of concentration was used as the X-axis and the percentage inhibition as the Y-axis, and the function of the analytical software GraphPad Prism 5; log(inhibitor) vs. response -Variable slope, was used to lit dose-effect curves to obtain the IC50) values of each compound on enzyme activity.
(§15) The formula is Y=Bottom+(Top-Bottom)/(1+10^((LogIC50-X)*HillSlope))
(§16) The 1C50 data are specified in Table 1.

The next assay concerns the target T2, JAK2 (Homo sapiens, UniProt O60674).
T2 construct: purchased Carna 08-045
Put plainly: In vitro activity test of JAK2 kinase (Caliper EZ Reader conversion assay). The assay is classed as biochemical. The conditions noted are these: enzyme activity, 10 concentrations from 1000 nM, 3-fold dilution. As to the method:
as §1, §2, §3, §4, §5, §6, §7, §8, §9, §10, §11, §12, §13, §14, §15, §16

T2 sequence (O60674 whole entry, species assumed): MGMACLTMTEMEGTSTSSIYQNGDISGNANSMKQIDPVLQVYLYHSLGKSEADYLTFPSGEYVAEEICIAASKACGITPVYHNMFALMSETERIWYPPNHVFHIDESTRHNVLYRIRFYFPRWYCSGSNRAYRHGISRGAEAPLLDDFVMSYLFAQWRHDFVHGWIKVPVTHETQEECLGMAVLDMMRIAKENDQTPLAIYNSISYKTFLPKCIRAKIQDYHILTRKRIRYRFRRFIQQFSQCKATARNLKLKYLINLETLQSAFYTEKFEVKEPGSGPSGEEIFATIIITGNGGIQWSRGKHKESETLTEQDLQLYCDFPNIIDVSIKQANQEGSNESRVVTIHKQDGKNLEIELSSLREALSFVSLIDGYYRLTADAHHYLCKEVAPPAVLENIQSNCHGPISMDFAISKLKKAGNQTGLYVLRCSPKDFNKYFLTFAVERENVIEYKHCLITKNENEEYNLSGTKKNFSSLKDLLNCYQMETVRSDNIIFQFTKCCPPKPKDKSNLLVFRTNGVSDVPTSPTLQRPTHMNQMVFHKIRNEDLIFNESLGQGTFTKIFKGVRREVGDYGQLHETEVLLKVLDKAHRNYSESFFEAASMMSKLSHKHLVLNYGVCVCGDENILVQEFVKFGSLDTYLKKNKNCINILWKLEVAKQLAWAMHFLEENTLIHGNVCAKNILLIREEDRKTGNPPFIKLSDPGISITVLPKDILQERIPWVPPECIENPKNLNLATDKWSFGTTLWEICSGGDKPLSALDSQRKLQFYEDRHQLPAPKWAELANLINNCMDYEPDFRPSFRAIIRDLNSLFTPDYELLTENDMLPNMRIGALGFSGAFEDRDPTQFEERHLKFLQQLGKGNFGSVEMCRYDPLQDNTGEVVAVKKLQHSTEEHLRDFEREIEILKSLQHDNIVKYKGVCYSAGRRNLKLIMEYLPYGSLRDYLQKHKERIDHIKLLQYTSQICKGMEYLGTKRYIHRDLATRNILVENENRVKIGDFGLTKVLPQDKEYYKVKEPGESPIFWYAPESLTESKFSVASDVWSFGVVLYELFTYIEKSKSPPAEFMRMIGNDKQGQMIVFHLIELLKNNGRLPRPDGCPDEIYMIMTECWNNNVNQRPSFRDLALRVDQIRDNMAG
T1 sequence (P23458 whole entry, species assumed): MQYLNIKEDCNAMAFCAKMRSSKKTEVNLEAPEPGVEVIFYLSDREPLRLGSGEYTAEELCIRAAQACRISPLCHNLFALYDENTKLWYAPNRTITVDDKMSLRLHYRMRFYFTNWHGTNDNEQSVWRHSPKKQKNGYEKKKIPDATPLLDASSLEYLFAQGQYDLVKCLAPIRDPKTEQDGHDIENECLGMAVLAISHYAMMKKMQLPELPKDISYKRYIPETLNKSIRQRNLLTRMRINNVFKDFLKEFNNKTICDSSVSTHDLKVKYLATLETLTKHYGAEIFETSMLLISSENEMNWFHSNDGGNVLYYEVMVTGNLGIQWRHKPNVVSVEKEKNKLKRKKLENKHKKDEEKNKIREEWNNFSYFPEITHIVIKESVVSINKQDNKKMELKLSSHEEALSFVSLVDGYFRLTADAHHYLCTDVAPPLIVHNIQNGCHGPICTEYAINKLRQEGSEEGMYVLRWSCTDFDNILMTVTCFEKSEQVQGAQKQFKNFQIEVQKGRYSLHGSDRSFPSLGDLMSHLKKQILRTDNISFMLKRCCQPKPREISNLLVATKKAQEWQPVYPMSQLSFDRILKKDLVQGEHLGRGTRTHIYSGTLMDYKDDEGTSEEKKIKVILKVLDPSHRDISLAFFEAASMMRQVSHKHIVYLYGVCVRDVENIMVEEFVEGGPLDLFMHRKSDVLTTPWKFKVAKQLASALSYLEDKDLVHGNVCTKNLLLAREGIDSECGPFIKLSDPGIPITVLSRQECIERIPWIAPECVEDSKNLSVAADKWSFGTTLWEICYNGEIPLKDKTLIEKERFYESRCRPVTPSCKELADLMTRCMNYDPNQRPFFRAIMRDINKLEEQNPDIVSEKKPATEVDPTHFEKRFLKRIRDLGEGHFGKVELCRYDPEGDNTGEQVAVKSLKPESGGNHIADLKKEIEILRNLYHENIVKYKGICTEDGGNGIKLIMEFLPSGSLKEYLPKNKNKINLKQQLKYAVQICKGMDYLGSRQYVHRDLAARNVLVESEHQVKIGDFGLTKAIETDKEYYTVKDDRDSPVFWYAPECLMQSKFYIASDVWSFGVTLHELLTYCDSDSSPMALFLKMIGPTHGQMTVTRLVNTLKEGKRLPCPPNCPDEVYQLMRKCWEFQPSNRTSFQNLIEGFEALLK

As usually defined, the IC50 is the concentration at which inhibition is half-maximal. On to `O=S(=O)(C1CC1)N1CCC(n2c(-c3ccc(CO)o3)nc3cnc4[nH]ccc4c32)C1` (centres unmarked) [LXS45, (5-(1-(1-(cyclopropylsulfonyl)pyrrolidin-3-yl)-1,6-dihydroimidazo[4,5-d]pyrrolo[2,3-b]pyridin-2-yl)furan-2-yl)methanol], for which the IC50 against JAK1 and at JAK2 was 0.01 to 0.1 µM throughout.
Turning to `N#CCCn1cc(-n2c(-c3ccc(CO)o3)nc3cnc4[nH]ccc4c32)cn1` [LXS46, 3-(4-(2-(5-(Hydroxymethyl)furan-2-yl)imidazo[4,5-d]pyrrolo[2,3-b]pyridin-1(6H)-yl)-1H-pyrazol-1-yl)propanenitrile], the half-inhibitory concentration (IC50) against JAK1 was 0.01 to 0.1 µM; against JAK2 it was less than 0.01 µM.
On the same counts, the results for `CCCS(=O)(=O)N1CCC(n2c(-c3cccnc3N)nc3cnc4[nH]ccc4c32)C1` (centres unmarked) [LXS47, 3-(1-(1-(propylsulfonyl)pyrrolidin-3-yl)-1,6-dihydroimidazo[4,5-d]pyrrolo[2,3-b]pyridin-2-yl)pyridin-2-amine] are 0.1 to 1 µM and 0.1 to 1 µM.
On the same counts, the results for `C[C@@H](O)c1nc2cnc3[nH]ccc3c2n1C1CCN(CC#N)C1` (stereo partly drawn) [LXS48, 2-(3-(2-((R)-1-Hydroxyethyl)imidazo[4,5-d]pyrrolo[2,3-b]pyridin-1(6H)-yl)pyrrolidin-1-yl)acetonitrile] are 0.01 to 0.1 µM and 0.1 to 1 µM.
On to `C[C@@H](O)c1nc2cnc3[nH]ccc3c2n1C1CCN(CCC#N)C1` (stereo partly drawn) [LXS49, 3-(3-(2-((R)-1-Hydroxyethyl)imidazo[4,5-d]pyrrolo[2,3-b]pyridin-1(6H)-yl)pyrrolidin-1-yl)propanenitrile], for which the 50% inhibitory concentration (IC50) on JAK1 was 0.01 to 0.1 µM; on JAK2, 0.1 to 1 µM.
On the same counts, the results for `Cc1ccc(-c2nc3cnc4[nH]ccc4c3n2-c2cnn(CCC#N)c2)o1` [LXS50, 3-(4-(2-(5-Methylfuran-2-yl)imidazo[4,5-d]pyrrolo[2,3-b]pyridin-1(6H)-yl)-1H-pyrazol-1-yl)propanenitrile] are 0.1 to 1 µM and less than 0.01 µM.
Turning to `N#CCCN1CCC(n2c(-c3ccc(CO)o3)nc3cnc4[nH]ccc4c32)C1` (centres unmarked) [LXS51, 3-(3-(2-(5-(Hydroxymethyl)furan-2-yl)imidazo[4,5-d]pyrrolo[2,3-b]pyridin-1(6H)-yl)pyrrolidin-1-yl)propanenitrile], the 50% inhibitory concentration (IC50) against JAK1 and at JAK2 was 0.01 to 0.1 µM each time.
As to `N#CCN1CCC(n2c(-c3ccc(CO)o3)nc3cnc4[nH]ccc4c32)C1` (centres unmarked) [LXS52, 2-(3-(2-(5-(hydroxymethyl)furan-2-yl)imidazo[4,5-d]pyrrolo[2,3-b]pyridin-1(6H)-yl)pyrrolidin-1-yl)acetonitrile], the IC50 on JAK1 was 0.1 to 1 µM; at JAK2, 0.01 to 0.1 µM.
Turning to `C[C@@H](O)c1nc2cnc3[nH]ccc3c2n1-c1ccc(C#N)cc1` [LXS54, (R)-4-(2-(1-Hydroxyethyl)imidazo[4,5-d]pyrrolo[2,3-b]pyridin-1(6H)-yl)benzonitrile], the IC50 at JAK1 and at JAK2 was 0.1 to 1 µM throughout.
As for `N#Cc1ccc(-n2c(-c3ccc(CO)o3)nc3cnc4[nH]ccc4c32)cc1` [LXS55, 4-(2-(5-(Hydroxymethyl)furan-2-yl)imidazo[4,5-d]pyrrolo[2,3-b]pyridin-1(6H)-yl)benzonitrile], the half-inhibitory concentration (IC50) against JAK1 and against JAK2 was 0.1 to 1 µM each time.
As for `N#Cc1ccc(-n2c(-c3cccc(O)c3)nc3cnc4[nH]ccc4c32)cc1` [LXS56, 4-(2-(3-Hydroxyphenyl)imidazo[4,5-d]pyrrolo[2,3-b]pyridin-1(6H)-yl)benzonitrile], the results for the half-maximal inhibitory concentration (IC50) against JAK1 and against JAK2 were 0.01 to 0.1 µM and 0.1 to 1 µM, respectively.
`CS(=O)(=O)c1ccc(C2Nc3cnc4[nH]ccc4c3N2c2ccc(C#N)cc2)cc1` (centres unmarked) [LXS57, 4-(2-(4-(Methylsulfonyl)phenyl)-2,3-dihydroimidazo[4,5-d]pyrrolo[2,3-b]pyridin-1(6H)-yl)benzonitrile]: the IC50 against JAK1 and against JAK2 was 0.1 to 1 µM throughout.
Take `C[C@@H](O)c1nc2cnc3[nH]ccc3c2n1[C@@H]1CCN(CCC#N)C1` [LXS58, 3-((R)-3-(2-((R)-1-Hydroxyethyl)imidazo[4,5-d]pyrrolo[2,3-b]pyridin-1(6H)-yl)pyrrolidin-1-yl)propanenitrile]: the half-inhibitory concentration (IC50) at JAK1 and at JAK2 was 0.01 to 0.1 µM throughout.
On to `C[C@@H](O)c1nc2cnc3[nH]ccc3c2n1[C@H]1CCN(CCC#N)C1` [LXS59, 3-((S)-3-(2-((R)-1-hydroxyethyl)imidazo[4,5-d]pyrrolo[2,3-b]pyridin-1(6H)-yl)pyrrolidin-1-yl)propanenitrile], for which the IC50 at JAK1 is 0.01 to 0.1 µM; against JAK2, 0.1 to 1 µM.
As to `CS(=O)(=O)c1ccc(C2Nc3cnc4[nH]ccc4c3N2C2CCN(CCC#N)C2)cc1` (centres unmarked) [LXS60, 3-(3-(2-(4-(Methylsulfonyl)phenyl)-2,3-dihydroimidazo[4,5-d]pyrrolo[2,3-b]pyridin-1(6H)-yl)pyrrolidin-1-yl)propanenitrile], the IC50 against JAK1 and against JAK2 was 0.01 to 0.1 µM each time.
On to `C[C@@H](O)c1nc2cnc3[nH]ccc3c2n1C1CCN(C(=O)C2(C#N)CC2)C1` (stereo partly drawn) [LXS61, 1-(3-(2-((R)-1-Hydroxyethyl)imidazo[4,5-d]pyrrolo[2,3-b]pyridin-1(6H)-yl)pyrrolidin-1-carbonyl)cyclopropanecarbonitrile], for which the concentration for half-maximal inhibition (IC50) on JAK1 and against JAK2 was 0.1 to 1 µM in each case.
As to `CCS(=O)(=O)N1CC(CC#N)(n2cc(-n3c(-c4ccc(C)s4)nc4cnc5[nH]ccc5c43)cn2)C1` [LXS62, 2-(1-(Ethylsulfonyl)-3-(4-(2-(5-methylthien-2-yl)imidazo[4,5-d]pyrrolo[2,3-b]pyridin-1(6H)-yl)-1H-pyrazol-1-yl)azetidin-3-yl)acetonitrile], the IC50 on JAK1 was 0.1 to 1 µM; against JAK2, less than 0.01 µM.
Regarding `CCS(=O)(=O)N1CC(CC#N)(n2cc(-n3c(-c4cccs4)nc4cnc5[nH]ccc5c43)cn2)C1` [LXS63, 2-(1-(Ethylsulfonyl)-3-(4-(2-(thiophen-2-yl)imidazo[4,5-d]pyrrolo[2,3-b]pyridin-1(6H)-yl)-1H-pyrazol-1-yl)azetidin-3-yl)acetonitrile], the values for the IC50 against JAK1 and at JAK2 were 0.1 to 1 µM and less than 0.01 µM, respectively.
On the same counts, the results for `N#CCCn1cc(-n2c(C(F)(F)F)nc3cnc4[nH]ccc4c32)cn1` [LXS64, 3-(4-(2-(Trifluoromethyl)imidazo[4,5-d]pyrrolo[2,3-b]pyridin-1(6H)-yl)-1H-pyrazol-1-yl)propanenitrile] are 0.1 to 1 µM and less than 0.01 µM.
Consider `C[C@@H](O)c1nc2cnc3[nH]ccc3c2n1[C@H]1CCN(CCCC#N)C1` [LXS65, 4-((S)-3-(2-((R)-1-Hydroxyethyl)imidazo[4,5-d]pyrrolo[2,3-b]pyridin-1(6H)-yl)pyrrolidin-1-yl)butanenitrile], for which the half-maximal inhibitory concentration (IC50) on JAK1 was less than 0.01 µM; against JAK2, 0.1 to 1 µM.
As to `N#CCC(C1CCCC1)n1cc(-n2c(C(F)(F)F)nc3cnc4[nH]ccc4c32)cn1` (centres unmarked) [LXS66, 3-Cyclopentyl-3-(4-(2-(trifluoromethyl)imidazo[4,5-d]pyrrolo[2,3-b]pyridin-1(6H)-yl)-1H-pyrazol-1-yl)propanenitrile], the IC50 against JAK1 and at JAK2 was 0.01 to 0.1 µM in each case.
Take `CS(=O)(=O)c1ccc(C2Nc3cnc4[nH]ccc4c3N2c2cnn(CCC#N)c2)cc1` (centres unmarked) [LXS67, 3-(4-(2-(4-(Methylsulfonyl)phenyl)-2,3-dihydroimidazo[4,5-d]pyrrolo[2,3-b]pyridin-1(6H)-yl)-1H-pyrazol-1-yl)propanenitrile]: the IC50 against JAK1 and on JAK2 was 0.01 to 0.1 µM throughout.
As to `C[C@@H](O)c1nc2cnc3[nH]ccc3c2n1[C@H]1CCN(CCCCC#N)C1` [LXS68, 5-((S)-3-(2-((R)-1-Hydroxyethyl)imidazo[4,5-d]pyrrolo[2,3-b]pyridin-1(6H)-yl)pyrrolidin-1-yl)pentanonitrile], the IC50 against JAK1 is less than 0.01 µM; against JAK2, 0.1 to 1 µM.
On the same counts, the results for `C[C@@H](O)c1nc2cnc3[nH]ccc3c2n1[C@@H]1CN(CCCC#N)CC12CC2` [LXS69, 4-((S)-7-(2-((R)-1-Hydroxyethyl)imidazo[4,5-d]pyrrolo[2,3-b]pyridin-1(6H)-yl)-5-azaspiro[2,4]hept-5-yl)butanenitrile] are 0.01 to 0.1 µM and 0.01 to 0.1 µM.
For the compound `C[C@@H](O)c1nc2cnc3[nH]ccc3c2n1[C@@H]1CN(CCCC(F)(F)F)CC12CC2` [LXS70, (R)-1-(1-((S)-5-(4,4,4-Trifluorobutyl)-5-azaspiro[2,4]hept-7-yl)-1,6-dihydroimidazo[4,5-d]pyrrolo[2,3-b]pyridin-2-yl)ethanol], the IC50 against JAK1 and against JAK2 was 0.01 to 0.1 µM in each case.
